In patent publication US12384758B2, “Crystalline form of LNP023” (Novartis AG, priority 2020, dated 2025):

Assay: Dynamic vapor sorption (DVS) isotherms, 0 to 95% relative humidity
Format: physicochemical
Details: 25±1.0° C.
Procedure: Dynamic vapor sorption isotherms were recorded with a DVS Advantage instrument. The measurement cycle was started at ambient relative humidity (RH) of 40%. RH was then decreased to 0% in 10% steps. […] 5% steps. Finally, RH was increased to ambient relative humidity of 40% in 10% steps. The time per step was set to a minimum of 3 hours and a maximum of 6 hours. If an equilibrium condition with a constant mass change of 0.002%/min for a minimum of 5 min was reached before the maximum time for all examined samples the sequential humidity step was applied before the maximum time of 6 hours. If no equilibrium was achieved the consecutive humidity step was applied after the maximum time of 6 hours. The temperature was 25±1.0° C.
Therefore, Form HB of LNP023 hydrochloride described herein can be assigned as being non-hygroscopic.

## CCO[C@H]1CCN(Cc2c(OC)cc(C)c3[nH]ccc23)[C@H](c2ccc(C(=O)O)cc2)C1.Cl [Form HB of LNP023 hydrochloride, 4-((2S,4S)-(4-ethoxy-1-((5-methoxy-7-methyl-1H-indol-4-yl)methyl)piperidin-2-yl))benzoic acid hydrochloride]
DVS sorption 0% to 95% RH, desorption 95 to 0% RH
  hysteresis between the sorption and desorption curve: no significant hysteresis
DVS, reference weight at 0% RH
  mass difference between 40 and 95% RH (DVS equilibrium mass change): less than 0.2 weight %
After DVS cycle 0 to 95% RH
  PXRD after the DVS experiment (physical stability of the form): remains unchanged
From DVS, non-hygroscopic defined in b47 as mass increase of less than 0.2% at 80% RH at 25° C.
  hygroscopicity assignment: non-hygroscopic
